Measurements reported in patent publication US10975068B2, “6-aminopyridin-3-yl thiazoles as modulators of RORγT” (Janssen Pharmaceutica NV, priority 2016, dated 2021).
Where two headings read alike, the source gives them in different places.

Columns and labels:
[1] = biological target: full-length human RORγt (Homo sapiens (Human), UniProt P51449); experiment: RORγt (full-length human) reporter assay, Conditions B or C; assay type: cell-based; details: for inhibition at 3 µM: at 3 μM compound concentration; for inhibition at 6 µM: read-out: RORγt (FL) Reporter Assay B or C, % inhibition @ 6 μM, Conditions B or C; for RORγt (FL) Reporter Assay B or C, % inhibition (value marked *): marked *: footnote not given
In short: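 HEK293T cells transiently co-transfected with GAL4-DBD–full-length human RORγt (nt 142-1635, NM_001001523.1) plus GAL4-firefly and CMV-Renilla luciferase reporters; compounds added 4-6 h post-transfection for 16-20 h in 1.3% FBS, 0.1% DMSO. Firefly signal normalized to DMSO and saturating reference compound, then to Renilla; IC50 from concentration plots.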

[2] = biological target: human RORγt ligand binding domain (RORγt LBD) (Homo sapiens (Human), UniProt P51449); experiment: RORγt ThermoFluor® assay (thermal shift binding); details: read-out: ThermoFluor® Assay, Kd
In short: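 His-tagged human RORγt LBD (0.065 mg/mL) with 60 μM 1,8-ANS in 100 mM Hepes pH 7.0, 10 mM NaCl, 2.5 mM GSH, 0.002% Tween-20 was heated at 1 °C/min.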

[3] = read-out: RORγt (FL) Reporter Assay B or C, % inhibition
[4] = read-out: RORγt (FL) Reporter Assay B or C, IC50
[5] = Conditions B or C, read-out: RORγt (FL) Reporter Assay B or C, IC50
[6] = RORγt (FL) Reporter Assay B or C, IC50 (μM), Conditions B or C

Chain of full-length human RORγt (P51449 other isoform, or with tags, fused parts or gaps): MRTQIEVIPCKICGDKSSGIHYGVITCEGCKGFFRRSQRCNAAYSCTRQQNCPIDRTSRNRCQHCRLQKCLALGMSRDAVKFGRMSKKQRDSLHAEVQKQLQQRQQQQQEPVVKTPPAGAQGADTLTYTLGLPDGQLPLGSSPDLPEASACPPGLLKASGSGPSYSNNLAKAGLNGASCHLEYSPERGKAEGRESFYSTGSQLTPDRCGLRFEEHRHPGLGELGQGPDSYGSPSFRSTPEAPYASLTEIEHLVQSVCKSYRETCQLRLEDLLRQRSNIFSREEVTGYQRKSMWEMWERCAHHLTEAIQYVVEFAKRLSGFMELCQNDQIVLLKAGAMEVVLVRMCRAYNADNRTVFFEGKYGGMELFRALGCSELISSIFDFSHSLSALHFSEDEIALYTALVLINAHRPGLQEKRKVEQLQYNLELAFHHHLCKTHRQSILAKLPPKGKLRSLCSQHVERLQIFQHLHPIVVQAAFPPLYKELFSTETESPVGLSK
Chain of human RORγt ligand binding domain (RORγt LBD) (P51449 other isoform, or with tags, fused parts or gaps): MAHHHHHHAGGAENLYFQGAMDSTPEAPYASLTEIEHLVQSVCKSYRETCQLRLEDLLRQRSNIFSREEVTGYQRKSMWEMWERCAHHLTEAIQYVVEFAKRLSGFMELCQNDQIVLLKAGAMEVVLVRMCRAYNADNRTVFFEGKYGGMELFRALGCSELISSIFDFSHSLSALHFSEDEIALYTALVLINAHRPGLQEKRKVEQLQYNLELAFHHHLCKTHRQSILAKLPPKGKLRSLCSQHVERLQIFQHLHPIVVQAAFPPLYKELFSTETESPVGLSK

Structure (SMILES)	inhibition at 3 µM [1, 3] [%]	IC50 [1, 4] [µM]	Kd [2] [nM]	IC50 [1, 5] [µM]	RORγt (FL) Reporter Assay B or C, % inhibition (value marked *) ([1]; Conditions B or C)	further results
CC[C@H](Nc1cc(C(F)F)c(-c2sc(C(=O)N3CC4(COC4)C3)nc2C(=O)N2CCC[C@@H]2C)cn1)C(F)(F)F [Example 384, [5-[4-(Difluoromethyl)-6-[[(1S)-1-(trifluoromethyl)propyl]amino]-3-pyridyl]-2-(6-oxa-2-azaspiro[3.3]heptane-2-carbonyl)thiazol-4-yl]-[(2S)-2-methylpyrrolidin-1-yl]methanone]	98	0.07	5			
C[C@H](Nc1cc(C(F)(F)F)c(-c2sc(C(=O)NCC(C)(C)O)nc2C(=O)N2CCC(F)CC2)cn1)C1CC1 [Example 30, (S)-5-(6-((1-Cyclopropylethyl)amino)-4-(trifluoromethyl)pyridin-3-yl)-4-(4-fluoropiperidine-1-carbonyl)-N-(2-hydroxy-2-methylpropyl)thiazole-2-carboxamide]			2.8	0.02		inhibition at 6 µM [1]: 104%
C[C@H]1CCCN1C(=O)c1nc(C(N)=O)sc1-c1cnc(NC(C)(C)C)cc1C(F)(F)F [Example 308, (S)-5-(6-(tert-Butylamino)-4-(trifluoromethyl)pyridin-3-yl)-4-(2-methylpyrrolidine-1-carbonyl)thiazole-2-carboxamide]	107	0.26	96			
C[C@H]1CCCN1C(=O)c1nc(C(=O)NCC(C)(C)O)sc1-c1cnc(NC2CCCC2(F)F)cc1C(F)(F)F (stereo partly drawn) [Example 127, 5-(6-((2,2-Difluorocyclopentyl)amino)-4-(trifluoromethyl)pyridin-3-yl)-N-(2-hydroxy-2-methylpropyl)-4-((S)-2-methylpyrrolidine-1-carbonyl)thiazole-2-carboxamide]			6.2	0.11	114* %	
O=C(N[C@@H]1COC[C@H]1O)c1nc(C(=O)N2C3CCC2CC3)c(-c2cnc(N[C@@H](C3CC3)C(F)(F)F)cc2C(F)F)s1 [Example 442, 4-((1s,4s)-7-Azabicyclo[2.2.1]heptane-7-carbonyl)-5-[6-[[(1S)-1-cyclopropyl-2,2,2-trifluoro-ethyl]amino]-4-(difluoromethyl)-3-pyridyl]-N-[(3R,4S)-4-hydroxytetrahydrofuran-3-yl]thiazole-2-carboxamide]			1.6			IC50 ([1]; RORγt (FL) Reporter Assay B or C, IC50): 0.32 µM; inhibition at 1 µM ([1]; at 1 μM compound concentration, read-out: RORγt (FL) Reporter Assay B or C, % inhibition): 96%
CC[C@H](Nc1cc(C(F)F)c(-c2sc(C(=O)N[C@@H](C)C(C)(C)O)nc2C(=O)N2C3CCC2CC3)cn1)C(F)(F)F [Example 248]			3.4	0.016	102* %	
C[C@H]1CCCN1C(=O)c1nc(C(=O)NCC(C)(C)O)sc1-c1cnc(N[C@H]2CCCCC2(F)F)cc1C(F)(F)F (relative stereo) [Example 36, 5-(6-(((S*)-2,2-Difluorocyclohexyl)amino)-4-(trifluoromethyl)pyridin-3-yl)-N-(2-hydroxy-2-methylpropyl)-4-((S)-2-methylpyrrolidine-1-carbonyl)thiazole-2-carboxamide]			1.7	0.016		inhibition at 6 µM [1]: 116%
CC[C@H](Nc1cc(C(F)(F)F)c(-c2sc(C(=O)NCC(C)(C)O)nc2C(=O)N2C3CCC2CC3)cn1)C(F)(F)F [Example 101, 4-((1s,4s)-7-Azabicyclo[2.2.1]heptane-7-carbonyl)-N-(2-hydroxy-2-methylpropyl)-5-(6-(((S)-1,1,1-trifluorobutan-2-yl)amino)-4-(trifluoromethyl)pyridin-3-yl)thiazole-2-carboxamide]			3.2		107* %	IC50 [1, 6]: 0.019 µM
CC[C@H](Nc1cc(C(F)F)c(-c2sc(C(=O)NCC(C)(C)O)nc2C(=O)N2C3CCC2CC3)cn1)C(F)(F)F [Example 89, 4-((1s,4s)-7-Azabicyclo[2.2.1]heptane-7-carbonyl)-5-(4-(difluoromethyl)-6-(((S)-1,1,1-trifluorobutan-2-yl)amino)pyridin-3-yl)-N-(2-hydroxy-2-methylpropyl)thiazole-2-carboxamide]			5.2		100* %	IC50 [1, 6]: 0.024 µM
C[C@H]1CCCN1C(=O)c1nc(C(=O)NCC(C)(C)O)sc1-c1cnc(NC(C2CC2)C2CC2)cc1C(F)F [Example 179, (S)-5-(6-((Dicyclopropylmethyl)amino)-4-(difluoromethyl)pyridine-3-yl)-N-(2-hydroxy-2-methylpropyl)-4-(2-methylpyrrolidine-1-carbonyl)thiazole-2-carboxamide]			2.2	0.018	105* %	
C[C@H]1CC(F)(F)CN1C(=O)c1nc(C(=O)N[C@H]2COC[C@H]2O)sc1-c1cnc(NC2(C)CCC2)cc1C(F)(F)F (relative stereo) [Example 184, 4-((S)-4,4-Difluoro-2-methylpyrrolidine-1-carbonyl)-N-((3S*,4S*)-4-hydroxytetrahydrofuran-3-yl)-5-(6-((1-methylcyclobutyl)amino)-4-(trifluoromethyl)pyridine-3-yl)thiazole-2-carboxamide]			0.7	0.049	92* %	
C[C@H](Nc1cc(C(F)F)c(-c2sc(C(=O)NC3CCS(=O)(=O)CC3)nc2C(=O)N2CCC[C@@H]2C)cn1)C(F)(F)F [Example 187, 5-(4-(Difluoromethyl)-6-(((S)-1,1,1-trifluoropropan-2-yl)amino)pyridine-3-yl)-N-(1,1-dioxidotetrahydro-2H-thiopyran-4-yl)-4-((S)-2-methylpyrrolidine-1-carbonyl)thiazole-2-carboxamide]			6.8	0.14	85* %	

Further lines, with some results ahead:

inhibition at 3 µM [1, 3] [%]	IC50 [1, 4] [µM]	Kd [2] [nM]	IC50 [1, 5] [µM]	RORγt (FL) Reporter Assay B or C, % inhibition (value marked *) ([1]; Conditions B or C)	Structure (SMILES)	further results
98	0.03	0.78			C[C@H](NC(=O)c1nc(C(=O)N2CCC[C@@H]2C)c(-c2cnc(N[C@H](C3CC3)C(F)(F)F)cc2C(F)F)s1)C(C)(C)O [Example 333, 5-(6-(((R)-1-Cyclopropyl-2,2,2-trifluoroethyl)amino)-4-(difluoromethyl)pyridin-3-yl)-N—((S)-3-hydroxy-3-methylbutan-2-yl)-4-((S)-2-methylpyrrolidine-1-carbonyl)thiazole-2-carboxamide]	
96	0.036	0.97			C[C@H]1CCCN1C(=O)c1nc(C(=O)NCC(C)(C)O)sc1-c1cnc(NCC2(C(F)(F)F)CCC2)cc1C(F)F [Example 274, 5-[4-(Difluoromethyl)-6-[[1-(trifluoromethyl)cyclobutyl]methylamino]-3-pyridyl]-N-(2-hydroxy-2-methyl-propyl)-4-[(2S)-2-methylpyrrolidine-1-carbonyl]thiazole-2-carboxamide]	
		5.2	0.042	116* %	CC[C@H](Nc1cc(C(F)F)c(-c2sc(C(=O)N[C@H](C)CO)nc2C(=O)N2CCC[C@@H]2C)cn1)C(F)(F)F [Example 234, 5-[4-(Difluoromethyl)-6-[[(1S)-1-(trifluoromethyl)propyl]amino]-3-pyridyl]-N-[(1R)-2-hydroxy-1-methyl-ethyl]-4-[(2S)-2-methylpyrrolidine-1-carbonyl]thiazole-2-carboxamide]	
113	0.017	1			C[C@H](CO)NC(=O)c1nc(C(=O)N2CC(F)(F)C[C@@H]2C)c(-c2cnc(NC(C)(C)C)cc2C(F)F)s1 [Example 428, 5-[6-(tert-Butylamino)-4-(difluoromethyl)-3-pyridyl]-4-[(2S)-4,4-difluoro-2-methyl-pyrrolidine-1-carbonyl]-N-[(1R)-2-hydroxy-1-methyl-ethyl]thiazole-2-carboxamide]	
		1.2	0.037	119* %	CCC(C)(C)Nc1cc(C(F)F)c(-c2sc(C(=O)NCC(C)(C)O)nc2C(=O)N2CCC[C@@H]2C)cn1 [Example 96, (S)-5-(4-(Difluoromethyl)-6-(tert-pentylamino)pyridin-3-yl)-N-(2-hydroxy-2-methylpropyl)-4-(2-methylpyrrolidine-1-carbonyl)thiazole-2-carboxamide]	
		47	0.54	85* %	C[C@H](Nc1cc(C(F)F)c(-c2sc(C(=O)N[C@H]3C[C@H](O)C3)nc2C(=O)N2CCC[C@@H]2C)cn1)C(F)(F)F [Example 188]	
98	0.031	1.8			C[C@H](NC(=O)c1nc(C(=O)N2CC(F)(F)C[C@@H]2C)c(-c2cnc(NC(C)(C)C)cc2C(F)F)s1)C(C)(C)O [Example 257, 5-[6-(tert-Butylamino)-4-(difluoromethyl)-3-pyridyl]-4-[(2S)-4,4-difluoro-2-methyl-pyrrolidine-1-carbonyl]-N-[(1S)-2-hydroxy-1,2-dimethyl-propyl]thiazole-2-carboxamide]	
